Columns and labels:
[1] = tested on: absorption of sodium from the intestinal lumen; experiment: Inhibition of intestinal sodium absorption: urinary sodium (uNa) 16 h after single oral dose in rats; type: in vivo, rat; conditions: oral gavage, 16 h post-dose
Method in brief: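 Urinary sodium mass over the 16 h after one oral gavage dose, measured by cation-exchange ion chromatography, reported as percent of water-vehicle group; ANOVA plus Dunnett's post hoc test. Groups of six 8-week-old Sprague-Dawley rats, housed individually in metabolic cages post-dose, fed and watered freely.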

Rat NHE3 = biological target: T1, Rat NHE3 (Rattus norvegicus, UniProt P26433); experiment: Cell-based NHE3 activity under prompt conditions (OK cells, BCECF pH recovery), rat NHE3; conditions: prompt conditions
T1 construct: expressed in transfected cells; host or cells: Opossum kidney (OK) cells (ATCC), electroporation
Method in brief: (§1)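 Fluorometric NHE3 antiport assay in opossum kidney cells carrying rat or human NHE3, using BCECF pH recovery after NH4Cl-prepulse acid loading. pIC50 values derive from initial rates averaged across at least two replicates.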

Human NHE3 = biological target: T2, Human NHE3 (Homo sapiens, UniProt P48764); experiment: Cell-based NHE3 activity under prompt conditions (OK cells, BCECF pH recovery), human NHE3; conditions: prompt conditions
T2 construct: expressed in transfected cells; host or cells: Opossum kidney (OK) cells (ATCC), electroporation
T2 sequence (P48764 26-834): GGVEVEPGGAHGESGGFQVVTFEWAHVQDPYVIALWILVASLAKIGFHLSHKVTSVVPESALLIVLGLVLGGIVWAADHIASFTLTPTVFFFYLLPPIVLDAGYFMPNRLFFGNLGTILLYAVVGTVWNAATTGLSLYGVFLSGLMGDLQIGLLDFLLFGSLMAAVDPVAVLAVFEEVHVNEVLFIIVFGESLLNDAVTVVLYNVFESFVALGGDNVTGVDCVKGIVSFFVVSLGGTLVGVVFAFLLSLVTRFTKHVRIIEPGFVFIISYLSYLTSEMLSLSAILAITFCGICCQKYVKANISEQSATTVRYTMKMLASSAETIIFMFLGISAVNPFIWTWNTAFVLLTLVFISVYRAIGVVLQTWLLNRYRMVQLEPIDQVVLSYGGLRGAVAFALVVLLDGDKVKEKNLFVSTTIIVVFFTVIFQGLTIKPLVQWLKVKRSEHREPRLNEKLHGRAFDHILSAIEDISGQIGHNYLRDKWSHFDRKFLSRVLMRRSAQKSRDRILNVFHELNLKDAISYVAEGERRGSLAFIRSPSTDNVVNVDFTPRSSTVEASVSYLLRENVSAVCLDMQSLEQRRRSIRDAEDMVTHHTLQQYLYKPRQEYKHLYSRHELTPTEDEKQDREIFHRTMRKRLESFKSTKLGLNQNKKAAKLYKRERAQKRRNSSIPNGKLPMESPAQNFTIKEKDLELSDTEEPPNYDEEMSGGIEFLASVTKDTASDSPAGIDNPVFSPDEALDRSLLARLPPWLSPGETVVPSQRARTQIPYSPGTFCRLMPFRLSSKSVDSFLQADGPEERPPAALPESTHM
Method in brief: as §1

[2] = tested on: phosphorus and calcium levels in the urine of rats; experiment: Urinary excretion of phosphate and calcium in rats (16 h overnight urine); type: in vivo, rat; conditions: rats, oral gavage, 16 h post-dose
[3] = tested on: absorption of sodium from the intestinal lumen; experiment: Fecal form score (FFS) 16 h after oral dose in rats; type: in vivo, rat; conditions: oral gavage, 16 h post-dose, scale 1-5
Method in brief: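 Fecal form was scored at 16 h post-dose on a 1–5 wetness scale (normal pellet to liquid stream), with two independent observations averaged across six rats per group. Animals were 8-week-old Sprague-Dawley rats given test compound or water orally in the late afternoon and kept in metabolic cages.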

T1 sequence (P26433 29-831): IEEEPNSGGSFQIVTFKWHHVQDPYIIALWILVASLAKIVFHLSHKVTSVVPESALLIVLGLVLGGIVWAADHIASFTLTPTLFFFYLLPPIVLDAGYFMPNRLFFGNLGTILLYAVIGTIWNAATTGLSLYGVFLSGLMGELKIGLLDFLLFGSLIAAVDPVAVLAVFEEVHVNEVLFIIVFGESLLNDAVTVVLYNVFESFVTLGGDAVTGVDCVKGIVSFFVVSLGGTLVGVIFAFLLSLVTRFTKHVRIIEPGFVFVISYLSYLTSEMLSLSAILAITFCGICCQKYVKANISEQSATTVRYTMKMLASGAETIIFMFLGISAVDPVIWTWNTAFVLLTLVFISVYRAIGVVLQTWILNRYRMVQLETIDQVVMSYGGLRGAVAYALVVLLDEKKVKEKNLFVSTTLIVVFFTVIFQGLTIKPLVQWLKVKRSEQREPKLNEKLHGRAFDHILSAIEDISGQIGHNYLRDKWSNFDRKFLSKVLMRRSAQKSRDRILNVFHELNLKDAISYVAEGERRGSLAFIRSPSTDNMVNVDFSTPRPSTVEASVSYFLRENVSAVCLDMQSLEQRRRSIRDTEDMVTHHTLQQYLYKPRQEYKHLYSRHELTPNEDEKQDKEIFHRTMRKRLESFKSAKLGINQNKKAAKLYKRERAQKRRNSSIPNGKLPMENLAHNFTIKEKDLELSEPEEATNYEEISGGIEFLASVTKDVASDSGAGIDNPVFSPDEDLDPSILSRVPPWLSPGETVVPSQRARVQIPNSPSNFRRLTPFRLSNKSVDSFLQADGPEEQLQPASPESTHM

| Prompt Rat NHE3 pIC50 (Rat NHE3) | Prompt Human NHE3 pIC50 (Human NHE3) | SMILES | Urine Na % of control ([1]; dose 10 mg/kg) [%] | Urine P % of control ([2]; dose 10 mg/kg) [%] | Fecal Form Score average ([3]; dose 10 mg/kg) | further results |
| --- | --- | --- | --- | --- | --- | --- |
| 6.60 | 7.00 | CN1Cc2c(Cl)cc(Cl)cc2[C@H](c2cccc(S(=O)(=O)NCCOCCOCCNC(=O)NCCN(CCNC(=O)NCCOCCOCCNS(=O)(=O)c3cccc([C@@H]4CN(C)Cc5c(Cl)cc(Cl)cc54)c3)C(=O)CCOCCOCCOCCOCCOCCOCCOCCOCCOCCC(=O)N(CCNC(=O)NCCOCCOCCNS(=O)(=O)c3cccc([C@@H]4CN(C)Cc5c(Cl)cc(Cl)cc54)c3)CCNC(=O)NCCOCCOCCNS(=O)(=O)c3cccc([C@@H]4CN(C)Cc5c(Cl)cc(Cl)cc54)c3)c2)C1 [compound 95] | 38 | 111 | 2 | – |
| 7.45 | 7.40 | O=C(CCOCCOCCOCCOCCOCCC(=O)NCCOCCOCCOCCNS(=O)(=O)c1ccc(OC2c3ccccc3CC2N2CCCCC2)cc1)NCCOCCOCCOCCNS(=O)(=O)c1ccc(OC2c3ccccc3CC2N2CCCCC2)cc1 (stereo not drawn) [compound 53] | 100 | 59 | 1 | – |
| 6.10 | 7.20 | CNC(=O)NC(CCC(=O)NCCOCCOCCNS(=O)(=O)c1cccc([C@@H]2CN(C)Cc3c(Cl)cc(Cl)cc32)c1)(CCC(=O)NCCOCCOCCNS(=O)(=O)c1cccc([C@@H]2CN(C)Cc3c(Cl)cc(Cl)cc32)c1)CCC(=O)NCCOCCOCCNS(=O)(=O)c1cccc([C@@H]2CN(C)Cc3c(Cl)cc(Cl)cc32)c1 [compound 130] | – | – | – | Urine Na % of control ([1]; dose 3 mg/kg): 18%; Urine P % of control ([2]; dose 3 mg/kg): 70%; Fecal Form Score average ([3]; dose 3 mg/kg): 2 |
| – | 8.00 | O=C(O)CN(CCN(CC(=O)O)CC(=O)NCCOCCOCCNS(=O)(=O)c1ccc(O[C@H]2c3ccccc3C[C@@H]2N2CCCCC2)cc1)CC(=O)NCCOCCOCCNS(=O)(=O)c1ccc(O[C@H]2c3ccccc3C[C@@H]2N2CCCCC2)cc1 [compound 65] | 93 | 85 | 1 | IC50 (Rat NHE3; read-out: Prompt Rat NHE3 pIC50 (converted)): 1.41 nM |
| 6.35 | 7.10 | NCCOCCOCCNS(=O)(=O)c1ccc(O[C@H]2c3ccccc3C[C@@H]2N2CCCCC2)cc1 [compound 60] | 67 | 92 | 1 | – |
| 8.60 | 8.00 | CN(C)[C@H]1Cc2c(Cl)cc(Cl)cc2[C@@H]1Oc1ccc(S(=O)(=O)NCCOCCOCCNC(=O)[C@H](O)[C@@H](O)C(=O)NCCOCCOCCNS(=O)(=O)c2ccc(O[C@H]3c4cc(Cl)cc(Cl)c4C[C@@H]3N(C)C)cc2)cc1 [compound 150] | 12 | 159 | 1 | Urine Na % of control ([1]; dose 3 mg/kg): 73%; Urine P % of control ([2]; dose 3 mg/kg): 74%; Fecal Form Score average ([3]; dose 3 mg/kg): 1 |
| 6.00 | 6.50 | CN1Cc2c(Cl)cc(Cl)cc2[C@H](c2cccc(S(=O)(=O)NCCOCCOCCNC(=O)CC(O)(CC(=O)NCCOCCOCCNS(=O)(=O)c3cccc([C@@H]4CN(C)Cc5c(Cl)cc(Cl)cc54)c3)C(=O)NCCOCCOCCNS(=O)(=O)c3cccc([C@@H]4CN(C)Cc5c(Cl)cc(Cl)cc54)c3)c2)C1 [compound 78] | 53 | 39 | 2 | – |
| 7.40 | 8.10 | O=C(NCCOCCOCCOCCNS(=O)(=O)c1ccc(O[C@H]2c3ccccc3C[C@@H]2N2CCCCC2)cc1)c1cccc(C(=O)NCCOCCOCCOCCNS(=O)(=O)c2ccc(O[C@H]3c4ccccc4C[C@@H]3N3CCCCC3)cc2)c1 [compound 118] | 83 | 131 | 1 | – |
| 7.20 | 7.77 | CN1Cc2c(Cl)cc(Cl)cc2[C@H](c2cccc(S(=O)(=O)NCCOCCOCCNC(=O)CCC(CCC(=O)NCCOCCOCCNS(=O)(=O)c3cccc([C@@H]4CN(C)Cc5c(Cl)cc(Cl)cc54)c3)(CCC(=O)NCCOCCOCCNS(=O)(=O)c3cccc([C@@H]4CN(C)Cc5c(Cl)cc(Cl)cc54)c3)NC(=O)NCCN3CCOCC3)c2)C1 [compound 144] | – | – | – | Urine Na % of control ([1]; dose 3 mg/kg): 32%; Urine P % of control ([2]; dose 3 mg/kg): 47%; Fecal Form Score average ([3]; dose 3 mg/kg): 2 |

The next lines start with the molecule.

| SMILES | Prompt Rat NHE3 pIC50 (Rat NHE3) | Prompt Human NHE3 pIC50 (Human NHE3) | Urine Na % of control ([1]; dose 10 mg/kg) [%] | Urine P % of control ([2]; dose 10 mg/kg) [%] | Fecal Form Score average ([3]; dose 10 mg/kg) | further results |
| --- | --- | --- | --- | --- | --- | --- |
| NC(N)=Nc1nc(-c2ccc(N3CCN(CCOCCOCCOCCNC(=O)NCCOCCOCCNC(=O)CN(CCN(CC(=O)O)CC(=O)NCCOCCOCCNC(=O)NCCOCCOCCOCCN4CCN(c5ccc(-c6nc(N=C(N)N)nc7ccc(Cl)cc67)cc5)CC4)CC(=O)O)CC3)cc2)c2cc(Cl)ccc2n1 [compound 46] | 7.80 | 7.90 | 58 | 112 | 1 | – |
| N=C(N)Nc1nc(-c2cccc(N3CCN(CCOCCOCCOCCNC(=O)NCCOCCOCCNC(=O)CN(CCN(CC(=O)O)CC(=O)NCCOCCOCCNC(=O)NCCOCCOCCOCCN4CCN(c5cccc(-c6nc(NC(=N)N)nc7ccc(Cl)cc67)c5)CC4)CC(=O)O)CC3)c2)c2cc(Cl)ccc2n1 [compound 41] | 7.90 | 8.20 | 104 | 133 | 1 | – |
| CN1Cc2c(Cl)cc(Cl)cc2[C@H](c2cccc(S(=O)(=O)NCCOCCOCCNC(=O)NCCCCNC(=O)NCCOCCOCCNS(=O)(=O)c3cccc([C@@H]4CN(C)Cc5c(Cl)cc(Cl)cc54)c3)c2)C1 [compound 180] | 8.03 | 8.30 | – | – | – | Urine Na % of control ([1]; dose 0.03 mg/kg): 67%; Urine Na % of control ([1]; dose 0.1 mg/kg): 45%; Urine Na % of control ([1]; dose 0.3 mg/kg): 33%; Urine Na % of control ([1]; dose 1 mg/kg): 15%; Urine Na % of control ([1]; dose 3 mg/kg): 53%; Urine P % of control ([2]; dose 0.03 mg/kg): 80%; Urine P % of control ([2]; dose 0.1 mg/kg): 82%; Urine P % of control ([2]; dose 0.3 mg/kg): 75%; Urine P % of control ([2]; dose 1 mg/kg): 69%; Urine P % of control ([2]; dose 3 mg/kg): 38%; Fecal Form Score average ([3]; dose 0.03 mg/kg): 1; Fecal Form Score average ([3]; dose 0.1 mg/kg): 1; Fecal Form Score average ([3]; dose 0.3 mg/kg): 3; Fecal Form Score average ([3]; dose 1 mg/kg): 3; Fecal Form Score average ([3]; dose 3 mg/kg): 4 |
| COCCNS(=O)(=O)c1cccc(C2CN(C)Cc3c(Cl)cc(Cl)cc32)c1 (stereo not drawn) [compound 2] | 6.70 | 6.50 | 115 | 80 | 1 | – |
| NC(N)=Nc1nc(-c2cccc(N3CCN(CCOCCOCCNC(=O)NCCOCCOCCNC(=O)NCCCCNC(=O)NCCOCCOCCNC(=O)NCCOCCOCCN4CCN(c5cccc(-c6nc(N=C(N)N)nc7ccc(Cl)cc67)c5)CC4)CC3)c2)c2cc(Cl)ccc2n1 [compound 28] | 7.60 | 8.10 | 83 | 129 | 1 | – |
| CN1Cc2c(Cl)cc(Cl)cc2[C@@H](c2cccc(S(=O)(=O)NCCOCCOCCNC(=O)NCCCCNC(=O)NCCOCCOCCNS(=O)(=O)c3cccc([C@H]4CN(C)Cc5c(Cl)cc(Cl)cc54)c3)c2)C1 [compound 40] | <5.00 | <5.00 | 90 | 128 | 1 | Urine Na % of control ([1]; dose 1 mg/kg): 80%; Urine P % of control ([2]; dose 1 mg/kg): 149%; Fecal Form Score average ([3]; dose 1 mg/kg): 1 |
